Where “and” joins values, the source holds several entries; their conditions need not be identical. Equal values may be shown once.
What was measured:
[1] = biological target: T1, slo1 (cbv1 isoform)+β1 BK channels (Rattus norvegicus, UniProt P97678); experiment: Channel activity (NPo) in POPE/POPS planar lipid bilayers, cbv1+β1; type: biochemical
T1 construct: made in house; host or cells: CHO cells, transient transfection; sucrose-gradient membrane preparation
Source text: BK channel-forming slo1 cDNA (cbv1 isoform; AY330293) was cloned from rat cerebral artery SM cells, and inserted into pcDNA3.1 vector as described. BK β1 cDNA (KCNMB1 product; NP_011452; FJ154955) were isolated from rat cerebral artery SM cells and cloned as described. β4 cDNA (KCNMB4; NP_055320; AY028605) were generously provided by Dr. Ligia Toro. CHO cells were transiently transfected with cbv1 ± β1-, or β4-carrying pcDNA3.1 using X-tremeGENE HP (Sigma-Aldrich). Mutations to β1/4 cDNAs were conducted by Genscript, with sequences being confirmed to be >99% identical to KCNMB1 product; NP_011452 or β4 KCNMB4; NP_055320; respectively. β1/4 and mutant constructs were flag-tagged (DYKDDDDK-tag) by Genscript services for subsequent immunoprecipitation and use in microscale thermophoresis studies.
Proteins for electrophysiological recordings in artificial lipid bilayers remained untagged. Cells were transiently transfected as described above, pelleted and re-suspended on ice in 10 ml of buffer solution of the following composition (mM): 30 KCl, 2 MgCl2, 10 HEPES, 5 EGTA; pH 7.2. A membrane preparation was obtained using a sucrose gradient as described. Aliquots were stored at −80 °C. BK channel-mediated ionic current was recorded in planar lipid bilayers consisting of a POPE:POPS 3:1 (w/w) mixture. Lipid mixtures were dried under N2 and re-suspended in 25 mg/ml of n-decane BK currents following incorporation into horizontal bilayers at 300/30 mM cis/trans gradient as detailed elsewhere. Ion currents were obtained during a 10-min gap-free recording at 0 mV in the presence of 0.01, 10 μM PROG, 10 μM PROG-oxime, or vehicle control (dimethyl sulfoxide; DMSO). Currents were obtained in gap-free mode using a Warner BC-525D amplifier, low pass-filtered at 1 kHz and sampled at 5 kHz with Digidata 1550B/pCLAMP 11 (Molecular Devices). For comparison with previous data from us[16],[17],[45]–[47], studies were conducted at 20–22 °C. […]
Patch-clamp and bilayer data were analyzed using Clampfit 10.7 software (Molecular Devices). NPo was used as an index of channel steady-state activity where N = number of channels in the patch (defined as a maximal number of opening levels at Po≤1) and Po=single channel open probability. Drug-induced NPo changes were determined by comparing baseline NPo (i.e., NPo with the patch/cell perfused with bath solution) to the NPo from the same patch/cell exposed to the agent under study (DMSO/PROG/oxime) dissolved in bath solution. NPo and mean open time values were automatically calculated using Clampfit 10.7, the latter using a 50% threshold detection event.

[2] = system: de-endothelialized, pressurized MCA segments (C57BL/6); experiment: Cerebral artery diameter in vitro, de-endothelialized pressurized MCA segments; set-up: species or system mouse
Source text: Eight-12 week-old C57BL/6J and KCNMB1^−/− on C57BL/6 background mice of both sexes were deeply anesthetized with isoflurane via inhalation in a tightly sealed jar. Resistance size MCAs (~100 μm in external diameter) were dissected out of the mouse brains after animal euthanasia with sharp scissors. For de-endothelialized records, the endothelium was removed by passing an air bubble into the vessel lumen for 90 s[30]. This method has been consistently used by our group and validated using endothelium-dependent versus endothelium-independent vasodilators[16],[26]. Arteries were cannulated as previously described by our group[26],[40]. MCAs were cut into 5 to 10 mm-long segments under a microscope (Nikon SMZ645). The segment was cannulated at each end, and the artery exterior was continuously perfused with physiologic sodium saline (PSS) of the following composition (mM): 119 NaCl, 4.7 KCl, 1.2 KH2PO4, 1.6 CaCl2, 1.2 MgSO4, 0.023 EDTA, 11 glucose, 24 NaHCO3, pH=7.4. PSS was continuously bubbled with an O2/CO2/N2 (21/5/74%) gas mixture and maintained at 35–37 °C. The artery external wall diameter was measured using the automatic edge-detection function of lonWizard software (lonOptix) via Sanyo VCB-3512T camera (Sanyo Electric Co.). Arteries were first incubated at an intravascular pressure of 10 mm Hg for 10 min. Then intravascular pressure was increased to 60 mmHg and held steady throughout the experiment to induce myogenic tone development and maintenance[19],[30],[51]. Each artery segment was exposed to PROG, PROG-oxime (in presence and absence of 1 µM paxilline) only once to avoid development of desensitization during repeated applications of PROG-containing solution. To determine arterial viability, arterial contractility was probed with a high KCl solution at the end of each experiment. The high KCl solution was composed of the following composition (mM): 63.7 NaCl, 60 KCl, 1.2 KH2PO4, 1.2 MgSO4, 0.023 EDTA, 11 glucose, 24 NaHCO3, 1.6 CaCl2, pH=7.4. Like PSS, the high-KCl solution was continuously bubbled with O2/CO2/N2 (21/5/74%) gas mixture and maintained at 35–37 °C.

[3] = system: pial arteries branching out of the MCA (C57BL/6J); experiment: Cerebral artery diameter through cranial window in vivo; set-up: species or system mouse; settings: individual replicates
Procedure: Eight-12 week-old male and female C57BL/6J mice were anesthetized with a mixture of xylazine/ketamine (12/100 mg per kg) and kept anesthetized for the duration of the experiment with subsequent ketamine doses (50 mg/kg of weight) as needed. A catheter was inserted into the carotid artery so that the infusion went straight to the brain rather than towards the thoracic cavity. An area of the skull was cleared of tissue and thinned to expose the branching arteries originating from the MCA on the side the catheter was inserted, above the zygomatic arch, between the ear and eye of the skull[19],[34]. The exposed arteries branching out from the MCA were monitored using a Leica MC170 HD microscope with a mounted camera (Leica M125 C) connected to a computer monitor. Drugs were diluted to their final concentration in sodium saline (0.9% NaCl) and administered via catheter at 0.1 ml/25 g of weight. Cranial window images before and after drug administration were acquired every 60 seconds for subsequent analysis.

T1 sequence (P97678 whole entry, canonical isoform): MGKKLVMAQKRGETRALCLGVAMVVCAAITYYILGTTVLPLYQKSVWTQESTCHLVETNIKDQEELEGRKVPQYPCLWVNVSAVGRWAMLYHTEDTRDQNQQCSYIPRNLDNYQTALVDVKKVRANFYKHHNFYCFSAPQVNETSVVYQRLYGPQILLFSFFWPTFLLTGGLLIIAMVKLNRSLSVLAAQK
T1 sequence (Q62976 1-1148 isoform Q62976-2 partner): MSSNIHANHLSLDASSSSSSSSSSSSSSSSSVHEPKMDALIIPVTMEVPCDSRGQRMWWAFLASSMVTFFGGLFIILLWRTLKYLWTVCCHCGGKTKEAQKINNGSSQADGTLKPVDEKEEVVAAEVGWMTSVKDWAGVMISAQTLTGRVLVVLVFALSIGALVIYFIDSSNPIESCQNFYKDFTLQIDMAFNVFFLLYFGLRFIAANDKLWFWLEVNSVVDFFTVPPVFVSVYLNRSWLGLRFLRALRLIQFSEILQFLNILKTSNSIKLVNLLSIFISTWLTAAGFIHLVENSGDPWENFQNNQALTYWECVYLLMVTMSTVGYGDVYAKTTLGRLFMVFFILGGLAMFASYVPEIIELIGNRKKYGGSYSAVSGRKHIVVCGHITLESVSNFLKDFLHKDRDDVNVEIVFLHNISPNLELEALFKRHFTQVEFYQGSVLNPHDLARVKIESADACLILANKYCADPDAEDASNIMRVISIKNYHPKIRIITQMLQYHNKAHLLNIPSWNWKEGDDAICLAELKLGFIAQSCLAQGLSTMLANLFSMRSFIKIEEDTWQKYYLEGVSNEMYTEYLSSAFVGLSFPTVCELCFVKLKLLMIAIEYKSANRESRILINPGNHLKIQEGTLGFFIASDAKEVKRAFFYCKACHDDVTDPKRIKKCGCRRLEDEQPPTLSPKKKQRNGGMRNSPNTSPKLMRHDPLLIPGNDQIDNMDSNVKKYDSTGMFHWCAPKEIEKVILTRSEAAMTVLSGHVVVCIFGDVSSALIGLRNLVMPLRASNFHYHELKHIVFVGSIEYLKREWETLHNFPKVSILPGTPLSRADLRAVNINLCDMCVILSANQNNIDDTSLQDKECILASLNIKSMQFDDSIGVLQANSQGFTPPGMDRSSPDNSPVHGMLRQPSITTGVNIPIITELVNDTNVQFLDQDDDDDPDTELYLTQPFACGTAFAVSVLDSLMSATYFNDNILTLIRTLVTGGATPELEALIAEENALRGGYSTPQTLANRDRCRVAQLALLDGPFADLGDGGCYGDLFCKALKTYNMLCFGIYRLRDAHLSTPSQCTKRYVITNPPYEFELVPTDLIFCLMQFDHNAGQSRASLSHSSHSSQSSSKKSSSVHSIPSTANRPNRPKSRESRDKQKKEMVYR

Q: `CC(=O)C1CCC2C3CCC4=CC(=NOCC(=O)O)CCC4(C)C3CCC12C` (centres unmarked) [PROG-oxime, progesterone 3-(O-carboxymethyl)oxime] was tested. Which NPo/NPobasal ([1]; 10 μM PROG-oxime, min 8, single records) did it give?
A: 1.05 and 1.498 and 1.058 and 0.7956 and 1.316

Q: What about the NPo/NPobasal ([1]; 10 μM PROG-oxime, min 9, single records) of the same molecule?
A: 1.025 and 1.49 and 0.9987 and 0.8873 and 1.604

Q: What about the NPo/NPobasal ([1]; 10 μM PROG-oxime, min 10, single records) of the same molecule?
A: 1.45 and 1.329 and 1.113 and 0.8109 and 1.283

Q: And the “maximal changes in channel activity (NPo/NPobasal)” value ([1]; 10 μM PROG-oxime, single records (Fig 3E))?
A: 1.0077 and 0.9962 and 1.086 and 1.4825 and 1.776 and 1.183

Q: What about the “action on channel activity (NPo)” value ([1]; 10 μM, cis chamber, vs DMSO) of the same molecule?
A: did not differ from that evoked by vehicle control

Q: And the “vasoactive response of MCA segments” value ([2]; 10 μM in the presence of 1 μM paxilline)?
A: MCA constriction that was preserved

Q: What about the “vasoactive response of MCA segments” value ([2]; 10 μM, male and female mice) of the same molecule?
A: failed to evoke MCA dilation

Q: What about the “artery diameter, normalized to time 0” value ([3]; Fig 7C, time 0, male mice) of the same molecule?
A: 1 (4×) and 1.00

Q: And the “artery diameter, normalized to time 0” value ([3]; Fig 7C, time 1, male mice)?
A: 0.9683 and 1.00 and 1.045 and 1.037 and 1.174

Q: And the “artery diameter, normalized to time 0” value ([3]; Fig 7C, time 2, male mice)?
A: 0.9748 and 0.99 and 1.075 and 1.065 and 0.9672

Q: What about the “artery diameter, normalized to time 0” value ([3]; Fig 7C, time 3, male mice) of the same molecule?
A: 0.9521 and 0.88 and 1.045 and 0.8398 and 1.066

Q: And the “artery diameter, normalized to time 0” value ([3]; Fig 7C, time 4, male mice)?
A: 0.9683 and 0.84 and 0.9351 and 0.8169 and 0.9018

Q: And the “artery diameter, normalized to time 0” value ([3]; Fig 7C, time 5, male mice)?
A: 1.008 and 1.01 and 1.026 and 0.9472 and 0.9098

Q: What about the “artery diameter, normalized to time 0” value ([3]; Fig 7C, time 6, male mice) of the same molecule?
A: 1.041 and 0.92 and 0.9494 and 0.9176 and 1.063

Q: And the “artery diameter, normalized to time 0” value ([3]; Fig 7C, time 7, male mice)?
A: 0.9184 and 0.90 and 0.9635 and 0.9259 and 0.9935

Q: What about the “artery diameter, normalized to time 0” value ([3]; Fig 7C, time 8, male mice) of the same molecule?
A: 0.9894 and 0.92 and 0.9405 and 0.9778 and 0.9794

Q: And the “artery diameter, normalized to time 0” value ([3]; Fig 7C, time 9, male mice)?
A: 0.8438 and 0.91 and 1.0031 and 0.973 and 0.9169

Q: And the “artery diameter, normalized to time 0” value ([3]; Fig 7D, time 0, female mice)?
A: 1.00 and 1 (4×)

Q: What about the “artery diameter, normalized to time 0” value ([3]; Fig 7D, time 1, female mice) of the same molecule?
A: 0.90 and 1.017 and 1.077 and 0.9108 and 0.9562

Q: What about the “artery diameter, normalized to time 0” value ([3]; Fig 7D, time 2, female mice) of the same molecule?
A: 0.98 and 0.9692 and 1.08 and 1.015 (2×)

Q: And the “artery diameter, normalized to time 0” value ([3]; Fig 7D, time 3, female mice)?
A: 0.96 and 0.8809 and 1.0998 and 0.9303 and 1.006

Q: What about the “artery diameter, normalized to time 0” value ([3]; Fig 7D, time 4, female mice) of the same molecule?
A: 0.71 and 0.9764 and 0.9876 and 0.9569 and 0.8502

Q: What about the “artery diameter, normalized to time 0” value ([3]; Fig 7D, time 5, female mice) of the same molecule?
A: 0.75 and 0.9574 and 1.009 and 0.7872 and 0.892

Q: And the “artery diameter, normalized to time 0” value ([3]; Fig 7D, time 6, female mice)?
A: 0.76 and 0.8573 and 1.009 and 0.8606 and 0.8869

Q: What about the “artery diameter, normalized to time 0” value ([3]; Fig 7D, time 7, female mice) of the same molecule?
A: 0.82 and 0.8681 and 0.9667 and 0.8496 and 0.8082

Q: What about the “artery diameter, normalized to time 0” value ([3]; Fig 7D, time 8, female mice) of the same molecule?
A: 0.87 and 0.8872 and 1.0207 and 0.8807 and 0.7534

Q: And the “artery diameter, normalized to time 0” value ([3]; Fig 7D, time 9, female mice)?
A: 0.74 and 0.8893 and 0.9136 and 0.9444 and 0.8332

Q: And the “artery diameter, normalized (PROG vs oxime comparison)” value ([3]; Fig 7E, same values as Fig 7C time 7, male mice)?
A: 0.8986

Q: What about the “artery diameter, normalized (PROG vs oxime comparison)” value ([3]; Fig 7F, same values as Fig 7D time 7, female mice) of the same molecule?
A: 0.97 and 0.85 and 0.81
